Measured values: publication PMC10999543, “Identification of kinase modulators as host-directed therapeutics against intracellular methicillin-resistant Staphylococcus aureus” (Frontiers in Cellular and Infection Microbiology, 2024)
Where two headings read alike, the source gives them in different places.

Key:
HeLa cells = test: Compound screen by flow cytometry: HeLa cell count as surrogate readout of cell viability (z-scoreHeLa); type: cell-based, human; details: for cell count rep 1 / z-scoreHeLa rep 1: replicate 1; for cell count rep 2 / z-scoreHeLa rep 2: replicate 2; for cell count rep 3 / z-scoreHeLa rep 3: replicate 3; for z-scoreHeLa mean: mean of 3 replicates
Method in brief: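 HeLa cells were infected with GFP-MRSA (mean MOI 6.8 ± 4.6) for 1 h, and extracellular bacteria were killed with 30 µg/ml gentamicin. Cells were then incubated overnight with kinase inhibitors in 5 µg/ml gentamicin, in triplicate against DMSO controls. Flow-cytometric cell count served as a viability surrogate, expressed as a plate z-score.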

intracellular MRSA = type: cell-based, Staphylococcus aureus; details: for %GFP+ rep 1 / z-scoreMRSA+ rep 1: replicate 1; for %GFP+ rep 2 / z-scoreMRSA+ rep 2: replicate 2; for %GFP+ rep 3 / z-scoreMRSA+ rep 3: replicate 3; for z-scoreMRSA+ mean: mean of 3 replicates
Method in brief: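 HeLa cells infected with GFP-MRSA (MOI ~6.8), gentamicin-cleared, then incubated overnight at 37°C with inhibitors plus 5 µg/ml gentamicin; DMSO as negative control, triplicates. Flow cytometry gave % GFP-positive cells and cell count (viability surrogate); hits by plate z-score (MRSA ≤ -2, HeLa count ≥ -3).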

[1] = PKIS compound screen raw data, HeLa cell count
[2] = compound screen, HeLa cell count
[3] = PKIS compound screen raw data, MRSA-infected HeLa cells
[4] = Yes/No: effect without cell death
[5] = compound screen, MRSA-infected HeLa cells
[6] = PKIS compound screen, HeLa cell count
[7] = PKIS compound screen, Yes/No call
[8] = PKIS compounds raw data, HeLa cell count
[9] = PKIS compound screen, MRSA-infected HeLa cells
[10] = PKIS compounds raw data, MRSA-infected HeLa cells

SMILES: COc1ccc(CNC(=O)NC2CCN(c3ccnc(Nc4ccc(F)cc4)n3)CC2)cc1 [GSK1379788A]
- cell count rep 1 (HeLa cells; [1]): 6376
- cell count rep 2 (HeLa cells; [1]): 5935
- cell count rep 3 (HeLa cells; [1]): 7721
- cell death (HeLa cells; Yes/No call from z-scoreHeLa): No
- z-scoreHeLa mean (HeLa cells; [2]): 1.43
- z-scoreHeLa rep 1 (HeLa cells; [2]): 1.46
- z-scoreHeLa rep 2 (HeLa cells; [2]): 1.26
- z-scoreHeLa rep 3 (HeLa cells; [2]): 1.57
- %GFP+ rep 1 (intracellular MRSA; [3]): 25.3%
- %GFP+ rep 2 (intracellular MRSA; [3]): 23.5%
- %GFP+ rep 3 (intracellular MRSA; [3]): 21.9%
- effect (intracellular MRSA; Yes/No call from z-scoreMRSA+): No
- hit (intracellular MRSA; [4]): No
- z-scoreMRSA+ mean (intracellular MRSA; [5]): 0.044
- z-scoreMRSA+ rep 1 (intracellular MRSA; [5]): 0.00598
- z-scoreMRSA+ rep 2 (intracellular MRSA; [5]): 0.22
- z-scoreMRSA+ rep 3 (intracellular MRSA; [5]): -0.09

SMILES: COc1cc(Nc2nccc(N3CCC(NC(=O)Nc4ccc5c(c4)OCO5)C3)n2)cc(OC)c1OC (stereo not shown) [GSK1379766A]
- cell count rep 1 (HeLa cells; [1]): 25836
- cell count rep 2 (HeLa cells; [1]): 29727
- cell count rep 3 (HeLa cells; [1]): 37841
- z-scoreHeLa mean (HeLa cells; [6]): -0.17
- z-scoreHeLa rep 1 (HeLa cells; [6]): 0.87
- z-scoreHeLa rep 2 (HeLa cells; [6]): -0.94
- z-scoreHeLa rep 3 (HeLa cells; [6]): -0.43
- cell death (HeLa cells; [7]): No
- cell death (HeLa cells; PKIS compound screen, Yes/No call on z-scoreHeLa): No
- z-scoreHeLa mean (HeLa cells; PKIS compound screen): 0.15
- z-scoreHeLa rep 1 (HeLa cells; PKIS compound screen): 0.05
- z-scoreHeLa rep 2 (HeLa cells; PKIS compound screen): -0.13
- z-scoreHeLa rep 3 (HeLa cells; PKIS compound screen): 0.53
- cell count rep 1 (HeLa cells; [8]): 6133
- cell count rep 2 (HeLa cells; [8]): 5809
- cell count rep 3 (HeLa cells; [8]): 6429
- %GFP+ rep 1 (intracellular MRSA; [3]): 17.4%
- %GFP+ rep 2 (intracellular MRSA; [3]): 18.6%
- %GFP+ rep 3 (intracellular MRSA; [3]): 19.8%
- z-scoreMRSA+ mean (intracellular MRSA; [9]): -0.04
- z-scoreMRSA+ rep 1 (intracellular MRSA; [9]): -0.15
- z-scoreMRSA+ rep 2 (intracellular MRSA; [9]): 0.0226
- z-scoreMRSA+ rep 3 (intracellular MRSA; [9]): 0.00377
- effect (intracellular MRSA; [7]): No
- hit (intracellular MRSA; PKIS compound screen, Yes/No call (effect without cell death)): No
- effect (intracellular MRSA; PKIS compound screen, Yes/No call on z-scoreMRSA+): No
- z-scoreMRSA+ mean (intracellular MRSA; PKIS compound screen): 0.27
- z-scoreMRSA+ rep 1 (intracellular MRSA; PKIS compound screen): 0.18
- z-scoreMRSA+ rep 2 (intracellular MRSA; PKIS compound screen): 0.32
- z-scoreMRSA+ rep 3 (intracellular MRSA; PKIS compound screen): 0.30
- %GFP+ rep 1 (intracellular MRSA; [10]): 28.0%
- %GFP+ rep 2 (intracellular MRSA; [10]): 27.7%
- %GFP+ rep 3 (intracellular MRSA; [10]): 28.9%

SMILES: Cc1ccc(C)c(NC(=O)NCCNc2ccnc(Nc3ccc(F)cc3)n2)c1 [GSK1379878A]
- cell count rep 1 (HeLa cells; [1]): 23015
- cell count rep 2 (HeLa cells; [1]): 22114
- cell count rep 3 (HeLa cells; [1]): 18414
- cell death (HeLa cells; Yes/No call from z-scoreHeLa): No
- z-scoreHeLa mean (HeLa cells; [2]): -0.62
- z-scoreHeLa rep 1 (HeLa cells; [2]): -1.22
- z-scoreHeLa rep 2 (HeLa cells; [2]): -0.54
- z-scoreHeLa rep 3 (HeLa cells; [2]): -0.10
- %GFP+ rep 1 (intracellular MRSA; [3]): 23.2%
- %GFP+ rep 2 (intracellular MRSA; [3]): 23.5%
- %GFP+ rep 3 (intracellular MRSA; [3]): 22.5%
- effect (intracellular MRSA; Yes/No call from z-scoreMRSA+): No
- hit (intracellular MRSA; [4]): No
- z-scoreMRSA+ mean (intracellular MRSA; [5]): 0.88
- z-scoreMRSA+ rep 1 (intracellular MRSA; [5]): 1.18
- z-scoreMRSA+ rep 2 (intracellular MRSA; [5]): 1.12
- z-scoreMRSA+ rep 3 (intracellular MRSA; [5]): 0.35
